This passage reports T/C results from PubChem BioAssay AID256 (DTP/NCI, 2004).

This assay has as its system CD2F1 mice, L1210 leukemia ip, survival T/C. In words: NCI In Vivo Anticancer Drug Screen. Data for tumor model L1210 Leukemia (intraperitoneal) in CD2F1 (CDF1) mice. To be noted: endpoint: mean survival time, higher = longer survival. In short, it runs like this: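 Mice carrying a transplanted tumor received test compound or vehicle alone. The value is the measurement in the treated group divided by that in the vehicle-treated control group.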

[1] abbreviates: dose: 100.0 mg/kg/injection, schedule: Q01DX009 (ip), vehicle: saline with Tween-80.
Where [2] appears, read: dose: 200.0 mg/kg/injection, schedule: Q01DX009 (ip), vehicle: saline with Tween-80.
Where [3] appears, read: dose: 400.0 mg/kg/injection, schedule: Q01DX009 (ip), vehicle: saline with Tween-80.
The mark [4] stands for this setting: dose: 100.0 mg/kg/injection, schedule: Q01DX001 (ip), vehicle: saline with Tween-80.
[5] abbreviates: dose: 200.0 mg/kg/injection, schedule: Q01DX001 (ip), vehicle: saline with Tween-80.
[6] abbreviates: dose: 100.0 mg/kg/injection, schedule: Q04DX003 (ip), vehicle: saline with Tween-80.
[7] abbreviates: dose: 200.0 mg/kg/injection, schedule: Q04DX003 (ip), vehicle: saline with Tween-80.
[8] abbreviates: dose: 400.0 mg/kg/injection, schedule: Q04DX003 (ip), vehicle: saline with Tween-80.
The mark [9] stands for this setting: dose: 100.0 mg/kg/injection, schedule: Q01DX009 (ip), vehicle: saline.
[10] abbreviates: dose: 200.0 mg/kg/injection, schedule: Q01DX009 (ip), vehicle: saline.
[11] abbreviates: dose: 6.25 mg/kg/injection, schedule: Q01DX009 (ip), vehicle: saline.
The mark [12] stands for this setting: dose: 12.5 mg/kg/injection, schedule: Q01DX009 (ip), vehicle: saline.
[13] abbreviates: dose: 25.0 mg/kg/injection, schedule: Q01DX009 (ip), vehicle: saline.
Setting [14] is: dose: 50.0 mg/kg/injection, schedule: Q01DX009 (ip), vehicle: saline.

Values joined by “and” are separate entries in the source; they are usually repeats but may differ in a detail not shown here. Equal values may be shown once. Toxic doses and inconclusive results are not listed.

Consider `O=C(CNC(=O)c1ccccc1)N/N=C/Cc1ccccc1`, for which the T/C was 97 % of control under setting [1], 104 % of control under setting [2] and 104 % of control under setting [3].
`CC(=O)Oc1cc(-c2ccccc2)c(OC(C)=O)c(N=[N+]=[N-])c1C`: the T/C is 101 % of control under setting [4] and 108 % of control under setting [5].
`Nc1cc(Br)cc(Br)c1`: the T/C is 94 % of control under setting [6], 105 % of control under setting [7] and 94 % of control under setting [8].
For `CCCC(O)C[N+](=O)[O-]` (stereo unspecified), the T/C was 104 % of control under setting [9] and 111 % of control under setting [10].
On to `CCCCCCCCCCCCCCCCCCC#N`, for which the T/C under setting [1] was 100 % of control; the T/C under setting [6] was 92 % of control; the T/C under setting [2] was 96 % of control; the T/C under setting [7] was 98 % of control; the T/C under setting [3] is 93 % of control; the T/C under setting [8] was 95 % of control.
For the compound `CC(=O)OCC1OC(OC2C(COC(C)=O)OC(Sc3ccc(C)cc3)C(OC(C)=O)C2OC(C)=O)C(OC(C)=O)C(OC(C)=O)C1OC(C)=O` (stereo unspecified), the T/C reads like this: under setting [6], 97 % of control; under setting [7], 91 % of control; under setting [8], 94 % of control.
Turning to `OCCCc1nc2ccccc2[nH]1`, the T/C is 102 % of control under setting [6], 107 % of control under setting [7] and 98 % of control under setting [8].
As to `CC(O)COCCOCCO` (stereo unspecified), the T/C is, setting by setting: under setting [9], 100 % of control; under setting [10], 103 % of control; (dose: 400.0 mg/kg/injection, schedule: Q01DX009 (ip), vehicle: saline) 100 % of control.
For the compound `CSc1ccc(NC(=O)N(CCCl)N=O)cc1`, the T/C (dose: 2.3 mg/kg/injection, schedule: Q01DX001 (ip), vehicle: other) is 121 % of control and the T/C (dose: 3.5 mg/kg/injection, schedule: Q01DX001 (ip), vehicle: other) was 122 % of control.
Regarding `CCCCc1ccc(N/C(N)=N/c2nc(C)cc(=O)[nH]2)cc1`, the T/C under setting [6] was 98 % of control, the T/C under setting [7] was 98 % of control and the T/C under setting [8] is 92 % of control.
On to `COc1cc(C[C@H]2c3cc(OC)c(OC)cc3CCN2C)c(Oc2cc3c(cc2OC)-c2c(OC)c(OC)cc4c2[C@H](C3)N(C)CC4)cc1OC`, for which the T/C reads like this: (dose: 2.5 mg/kg/injection, schedule: Q03HX016 (ip), vehicle: saline) 92 % of control; (dose: 2.5 mg/kg/injection, schedule: Q03HX024 (ip), vehicle: saline) 94 % of control; (dose: 5.0 mg/kg/injection, schedule: Q03HX008 (ip), vehicle: saline) 95 % of control; (dose: 5.0 mg/kg/injection, schedule: Q03HX016 (ip), vehicle: saline) 93 % of control; (dose: 5.0 mg/kg/injection, schedule: Q03HX024 (ip), vehicle: saline) 91 % of control; under setting [11], 95 % of control. The T/C was 93 % of control (dose: 10.0 mg/kg/injection, schedule: Q03HX008 (ip), vehicle: saline); 91 % of control (dose: 10.0 mg/kg/injection, schedule: Q03HX016 (ip), vehicle: saline); 92 % of control (dose: 10.0 mg/kg/injection, schedule: Q03HX024 (ip), vehicle: saline); 94 % of control under setting [12]; 98 % of control (dose: 12.5 mg/kg/injection, schedule: Q01DX009 (oral), vehicle: saline); 95 % of control (dose: 20.0 mg/kg/injection, schedule: Q03HX008 (ip), vehicle: saline). For the same compound, the T/C (dose: 20.0 mg/kg/injection, schedule: Q03HX016 (ip), vehicle: saline) was 95 % of control; the T/C (dose: 20.0 mg/kg/injection, schedule: Q03HX024 (ip), vehicle: saline) was 96 % of control; the T/C under setting [13] is 94 % of control; the T/C (dose: 25.0 mg/kg/injection, schedule: Q01DX009 (oral), vehicle: saline) is 101 % of control; the T/C (dose: 25.0 mg/kg/injection, schedule: Q04DX003 (ip), vehicle: saline) is 98 % of control; the T/C (dose: 25.0 mg/kg/injection, schedule: Q08DX002 (ip), vehicle: saline) is 92 % of control. In addition, the T/C by setting is: (dose: 40.0 mg/kg/injection, schedule: Q03HX008 (ip), vehicle: saline) 97 % of control; (dose: 40.0 mg/kg/injection, schedule: Q03HX016 (ip), vehicle: saline) 93 % of control; (dose: 40.0 mg/kg/injection, schedule: Q03HX024 (ip), vehicle: saline) 89 % of control; (dose: 50.0 mg/kg/injection, schedule: Q01DX001 (ip), vehicle: saline) 87 % of control; under setting [14], 94 % of control; (dose: 50.0 mg/kg/injection, schedule: Q01DX009 (oral), vehicle: saline) 96 % of control. Further, the T/C (dose: 50.0 mg/kg/injection, schedule: Q04DX003 (ip), vehicle: saline) was 98 % of control; the T/C (dose: 50.0 mg/kg/injection, schedule: Q08DX002 (ip), vehicle: saline) is 94 % of control; the T/C (dose: 80.0 mg/kg/injection, schedule: Q03HX008 (ip), vehicle: saline) was 98 % of control; the T/C (dose: 100.0 mg/kg/injection, schedule: Q01DX001 (ip), vehicle: saline) is 87 % of control; the T/C (dose: 100.0 mg/kg/injection, schedule: Q01DX001 (oral), vehicle: saline) was 101 % of control; the T/C under setting [9] was 94 % of control. For the same compound, the T/C runs as follows: (dose: 100.0 mg/kg/injection, schedule: Q01DX009 (oral), vehicle: saline) 106 % of control; (dose: 100.0 mg/kg/injection, schedule: Q04DX003 (ip), vehicle: saline) 95 % of control; (dose: 100.0 mg/kg/injection, schedule: Q08DX002 (ip), vehicle: saline) 92 % of control; (dose: 200.0 mg/kg/injection, schedule: Q01DX001 (oral), vehicle: saline) 101 % of control; (dose: 200.0 mg/kg/injection, schedule: Q01DX009 (oral), vehicle: saline) 109 % of control; (dose: 200.0 mg/kg/injection, schedule: Q04DX003 (ip), vehicle: saline) 105 % of control. Besides, the T/C is 94 % of control (dose: 200.0 mg/kg/injection, schedule: Q08DX002 (ip), vehicle: saline); 89 % of control (dose: 400.0 mg/kg/injection, schedule: Q01DX001 (ip), vehicle: saline); 103 % of control (dose: 400.0 mg/kg/injection, schedule: Q01DX001 (oral), vehicle: saline); 90 % of control (dose: 400.0 mg/kg/injection, schedule: Q08DX002 (ip), vehicle: saline); 90 % of control (dose: 800.0 mg/kg/injection, schedule: Q01DX001 (ip), vehicle: saline); 104 % of control (dose: 800.0 mg/kg/injection, schedule: Q01DX001 (oral), vehicle: saline). In addition, the T/C (dose: 1600.0 mg/kg/injection, schedule: Q01DX001 (oral), vehicle: saline) was 102 % of control.
In the case of `O=C(O)c1ccccc1O.[Fe]`, where the note is “dose: 200.0 mg/kg/injection, schedule: Q01DX001 (ip), vehicle: saline”, the T/C is 112 % of control.
Turning to `Nc1nc(Br)nc2c1ncn2C1OC(CO)C(O)C1O` (stereo unspecified), the T/C (dose: 75.0 mg/kg/injection, schedule: Q01DX001 (ip), vehicle: saline) was 109 % of control.
For `CC/C=C/CCOC(=N)C(Cl)(Cl)Cl`, the T/C (dose: 50.0 mg/kg/injection, schedule: Q01DX009 (ip), vehicle: saline with Tween-80) is 92 % of control; the T/C under setting [1] is 92 % of control; the T/C under setting [2] is 101 % of control.
For the compound `CC1(C)OCC(CO)([N+](=O)[O-])CO1`, the T/C under setting [6] is 96 % of control.
On to `COc1cc2c(cc1OC)CCN=C2`, for which the T/C under setting [14] was 106 % of control and the T/C under setting [9] is 92 % of control.
As for `NC(CCSCc1ccccc1)C(=O)O` (stereo unspecified), the T/C reads like this: under setting [1], 91 % of control; under setting [6], 98 % of control; under setting [2], 91 % of control; under setting [7], 93 % of control; under setting [3], 91 % of control; under setting [8], 95 % of control.
As to `Cc1ccc(S(=O)(=O)NC(=S)c2ccccc2)cc1`, the T/C under setting [4] was 97 % of control and the T/C under setting [5] was 105 % of control.
In the case of `NC1=NCN(C2OC(COC(=O)c3ccccc3)C(OC(=O)c3ccccc3)C2OC(=O)c2ccccc2)C(=O)N1` (stereo unspecified), the T/C is, setting by setting: (dose: 3.12 mg/kg/injection, schedule: Q01DX009 (ip), vehicle: saline) 97 % of control and 108 % of control; under setting [11], 91 % of control and 102 % of control; under setting [12], 91 % of control and 100 % of control; under setting [13], 94 % of control and 97 % of control; under setting [14], 112 % of control and 100 % of control; under setting [9], 122 % of control and 108 % of control. In addition, the T/C under setting [10] is 165 % of control.
